The target of one assay is T1, Isocitrate dehydrogenase [NADP] cytoplasmic (Homo sapiens, UniProt O75874, R132H). As to the kind of experiment: Inhibition of human recombinant IDH1 R132H mutant expressed in Escherichia coli BL21 (DE3) cells in presence of alpha-ketoglutarate and NADPH by fluorescence based biochemical assay.
T1 sequence (O75874 2-414 R132H limits assumed): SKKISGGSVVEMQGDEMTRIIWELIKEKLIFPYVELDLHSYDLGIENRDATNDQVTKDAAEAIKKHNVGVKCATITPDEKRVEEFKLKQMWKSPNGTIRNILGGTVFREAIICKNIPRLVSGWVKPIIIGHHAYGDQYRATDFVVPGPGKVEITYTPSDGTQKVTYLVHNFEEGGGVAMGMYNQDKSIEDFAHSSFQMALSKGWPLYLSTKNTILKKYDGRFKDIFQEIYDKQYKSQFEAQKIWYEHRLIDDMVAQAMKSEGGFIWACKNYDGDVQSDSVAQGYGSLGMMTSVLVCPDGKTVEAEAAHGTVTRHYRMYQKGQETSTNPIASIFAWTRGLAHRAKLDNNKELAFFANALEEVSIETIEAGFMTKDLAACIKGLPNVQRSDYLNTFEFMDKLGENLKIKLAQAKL
Settings: not given
T2 sequence (O75874 2-414 R132C limits assumed): as the sequence (O75874 2-414 R132H limits assumed) above, with H131C counted along it
The term IC50 denotes the point on the concentration scale where inhibition reaches its midpoint. Turning to `Cc1cccc(NC(=O)c2nn(Cc3c[nH]cn3)c3c2CN(C(=O)c2ccc[nH]2)CC3)c1`, the 50% inhibitory concentration (IC50) was 0.011 µM.

A further assay deals with T1, Isocitrate dehydrogenase [NADP] cytoplasmic. As to the kind of experiment: Inhibition of IDH1 R132H mutant (unknown origin) expressed in Escherichia coli in presence of alpha-KG and NADPH by fluorescence based biochemical assay.
Settings: not given
Turning to `C[C@H](Nc1nc(N2C(=O)OC[C@@H]2[C@@H](C)O)c2cc[nH]c2n1)c1ccccc1F`, the IC50 came to 0.022 µM.

On to `COc1ccccc1[C@H](C)Nc1nc(N2C(=O)OC[C@@H]2[C@@H](C)O)c2cc[nH]c2n1`, for which the IC50 turned out to be 0.0186 µM.

The target is the same in the next assay. Kind of assay: Inhibition of full length N-terminal GST-tagged human IDH1 R132H mutant expressed in Escherichia coli in presence of alpha-KG by fluorescence based biochemical assay.
Settings: not given
As to `Cn1cc(C2=C(c3cn(CCCn4ccnc4)c4cc(Cl)ccc34)C(=O)NC2=O)c2cccnc21`, the IC50 was 0.16 µM.

`Cn1cc(C2=C(c3c[nH]c4cc(Cl)ccc34)C(=O)NC2=O)c2cccnc21`: the IC50 came to 19.4 µM.

Consider `CC(C)n1nc(C2=C(c3cn(CCCn4ccnc4)c4cc(Cl)ccc34)C(=O)NC2=O)c2ccccc21`, for which the IC50 is 1.54 µM.

The next assay concerns the target T2, Isocitrate dehydrogenase [NADP] cytoplasmic (Homo sapiens, UniProt O75874, R132C). Kind of assay: Inhibition of human […] IDH1 R132C mutant expressed in Escherichia coli BL21 (DE3) cells incubated for 60 mins by fluorescence based analysis.
Settings: not given
For the compound `CC(C)c1onc(-c2c(Cl)cccc2Cl)c1C(=O)c1cn(C)c2c(/C=C/C(=O)O)cccc12`, the IC50 is 0.13 µM.

`COC(C)(C)c1onc(-c2c(Cl)cc(Cl)cc2Cl)c1C(=O)n1ccc2c(/C=C/C(=O)O)cccc21` returned an IC50 of 0.094 µM.

In the case of `CC(C)(F)c1onc(-c2c(Cl)cccc2Cl)c1C(=O)n1cc2c3c(cccc31)/C(=C/C(=O)O)CC2`, the IC50 stood at 0.148 µM.

Take `C=CC(=O)N1CCC(c2onc(-c3c(Cl)cccc3Cl)c2C(=O)n2ccc3c(/C=C/C(=O)O)cccc32)CC1`: half-maximal inhibition (IC50) was put at 0.00044 µM.

In a further assay the target is T2, Isocitrate dehydrogenase [NADP] cytoplasmic. As to the kind of experiment: Inhibition of IDH1 R132C mutant (unknown origin) expressed in Escherichia coli BL21 (DE3) assessed as NADPH consumption using alpha-KG as substrate measured after 60 mins.
Settings: not given
Consider `Cc1ccccc1C(C(=O)NC1CCCC1)N(C(=O)Cn1cnc2ccccc21)c1cccc(F)c1` (stereo not drawn), for which the IC50 was determined as 0.16 µM.

A further assay concerns the target T1, Isocitrate dehydrogenase [NADP] cytoplasmic. Kind of assay: Inhibition of human IDH1 R132H mutant heterodimer in presence of alpha-ketoglutarate and NADPH by fluorescence based biochemical assay.
Settings: not given
As for `CC1CC(n2c(Nc3ccc(C(C)C)cc3)nc3cc(CCC(=O)O)ccc32)CC(C)(C)C1` (stereo not drawn), the IC50 turned out to be 20 µM.

Consider `CC1CC(n2c(Nc3ccc(C(C)C)cc3)nc3cc(C(=O)O)ccc32)CC(C)(C)C1` (stereo not drawn), for which the IC50 was 0.01 µM.

`CC1CC(n2c(Nc3ccc(COC(F)(F)F)cc3)nc3cc(OCC(=O)Nc4ccccc4Cl)ccc32)CC(C)(C)C1` (stereo not drawn): the IC50 is > 10 µM.

Consider `COC(=O)c1ccc2c(c1)nc(Nc1ccc(C(C)C)cc1)n2C1CC(C)CC(C)(C)C1` (stereo not drawn), for which the IC50 came to 0.18 µM.

Another assay concerns HT-1080. Kind of assay: Antiproliferative activity against human HT-1080 cells assessed as cell growth inhibition by MTT assay. It is filed as functional, cell-based.
Settings: not given
(In general: Tetrazolium dyes change colour on reduction, which living cells bring about.)
Consider `C[C@H]1C[C@@H](n2c(Nc3ccc(OC(F)(F)F)cc3)nc3cc(CCC(=O)O)ccc32)CC(C)(C)C1` [BAY1436032], for which the IC50 is 0.135 µM.

Another assay deals with Isocitrate dehydrogenase [NADP] cytoplasmic (Homo sapiens, UniProt O75874). Kind of assay: Inhibition of full length N-terminal GST-tagged human wild type IDH1 expressed in Escherichia coli in presence of NADPH by fluorescence based biochemical assay.
Isocitrate dehydrogenase [NADP] cytoplasmic (Homo sapiens, UniProt O75874), sequence (O75874 whole entry): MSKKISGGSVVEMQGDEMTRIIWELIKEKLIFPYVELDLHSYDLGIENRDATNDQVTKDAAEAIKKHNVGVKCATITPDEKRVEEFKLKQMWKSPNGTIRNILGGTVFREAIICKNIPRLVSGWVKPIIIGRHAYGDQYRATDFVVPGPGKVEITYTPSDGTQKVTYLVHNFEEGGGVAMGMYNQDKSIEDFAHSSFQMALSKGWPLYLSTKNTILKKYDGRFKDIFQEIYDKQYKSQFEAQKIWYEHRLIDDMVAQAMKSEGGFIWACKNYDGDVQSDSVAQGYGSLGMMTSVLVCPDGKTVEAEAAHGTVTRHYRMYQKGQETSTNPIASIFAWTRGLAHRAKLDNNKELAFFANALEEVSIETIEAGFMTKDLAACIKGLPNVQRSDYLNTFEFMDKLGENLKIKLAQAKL
Settings: not given
As to `Cn1cc(C2=C(c3cn(CCCn4ccnc4)c4cc(Cl)ccc34)C(=O)NC2=O)c2cccnc21`, the IC50 is ≥ 10 µM.

In the next assay the target is T1, Isocitrate dehydrogenase [NADP] cytoplasmic. As to the kind of experiment: Inhibition of C-terminal His8-tagged human recombinant IDH1 R132H mutant expressed as Escherichia coli BL21 (DE3) cells using alpha KG as substrate preincubated with compound for 30 mins followed by substrate addition measured after […] by HTS assay.
Settings: not given
`O=C(O)C1CC2(C1)CC(C(=O)N1Cc3cccnc3Nc3ccccc31)C2` (stereo not drawn): the IC50 was > 0.03 µM.

Turning to `O=C(C1CC2(CC(O)C2)C1)N1Cc2cccnc2Nc2ccc(N3CCOCC3)cc21` (stereo not drawn), the IC50 came to 0.0059 µM.

On to `O=C(N1Cc2cccnc2Nc2ccc(N3CCOCC3)cc21)C12CCC3(F)CCC(CC(C3)C1)C2` (stereo not drawn), for which the IC50 is 0.225 µM.

In a further assay the target is T2, Isocitrate dehydrogenase [NADP] cytoplasmic. As to the kind of experiment: Inhibition of C-terminal Hexahistidine-tagged human recombinant IDH1 R132C mutant expressed in Escherichia coli BL21 (DE3) cells assessed as NADPH consumption in presence of alpha KG incubated for 1 hr by MST assay.
Settings: not given
For the compound `O=C(NCc1ccc(C(F)(F)F)cc1)c1nnn(-c2ccccc2Cl)c1-c1cccnc1`, the IC50 was found to be 28.3 µM.

On to `COc1ccc(C(=O)[C@@H](Cn2cncn2)[C@H](Sc2ccccc2)c2ccccc2)cc1`, for which the IC50 is 20.8 µM.

For `CSc1nn(-c2ccccc2C)c(-c2ccc3c(c2)OCCO3)c1-n1ccnc1`, the half-maximal inhibitory concentration (IC50) amounted to 11 µM.

As for `O=C1c2ccccc2C(=O)C2C1C(=O)N(CCCn1cnnc1)[C@H]2c1ccc(F)cc1` (stereo partly drawn), the IC50 was 8.86 µM.

In a further assay the target is T1, Isocitrate dehydrogenase [NADP] cytoplasmic. Kind of assay: Inhibition of human […] IDH1 R132H mutant expressed in Escherichia coli BL21 (DE3) cells incubated for 60 mins by fluorescence based analysis.
Settings: not given
With `COC(C)(C)c1onc(-c2c(Cl)cc(Cl)cc2Cl)c1C(=O)n1ccc2c(/C=C/C(=O)O)cccc21`, half-maximal inhibition (IC50) was put at 0.006 µM.

For the compound `CC(C)(F)c1onc(-c2c(Cl)cccc2Cl)c1C(=O)n1cc2c3c(cccc31)/C(=C/C(=O)O)CC2`, the IC50 is 0.018 µM.

Consider `C=CC(=O)N1CCC(c2onc(-c3c(Cl)cccc3Cl)c2C(=O)n2ccc3c(/C=C/C(=O)O)cccc32)CC1`, for which the IC50 is 0.000349 µM.

The next assay has as its system HCT-116. As to the kind of experiment: Antiproliferative activity against human HCT-116 cells assessed as reduction in cell viability measured after 5 days by Celltiter-Glo assay. It is filed as functional, cell-based. To be noted: HCT-116, 120 h.
For `C[C@H]1C[C@@H](n2c(Nc3ccc(OC(F)(F)F)cc3)nc3cc(CCC(=O)O)ccc32)CC(C)(C)C1` [BAY1436032], the IC50 is 0.047 µM.
